ChEMBL document CHEMBL1208748 (Bioorg Med Chem Lett, 2010)

What was measured:
[1] = biological target: Carbonic anhydrase 9 (Homo sapiens, UniProt Q16790)
[2] = biological target: Carbonic anhydrase 3 (Homo sapiens, UniProt P07451)
[3] = biological target: Carbonic anhydrase 1 (Homo sapiens, UniProt P00915)
[4] = biological target: T1, Carbonic anhydrase 15 (Mus musculus, UniProt Q99N23)
T1 sequence (Q99N23 whole entry): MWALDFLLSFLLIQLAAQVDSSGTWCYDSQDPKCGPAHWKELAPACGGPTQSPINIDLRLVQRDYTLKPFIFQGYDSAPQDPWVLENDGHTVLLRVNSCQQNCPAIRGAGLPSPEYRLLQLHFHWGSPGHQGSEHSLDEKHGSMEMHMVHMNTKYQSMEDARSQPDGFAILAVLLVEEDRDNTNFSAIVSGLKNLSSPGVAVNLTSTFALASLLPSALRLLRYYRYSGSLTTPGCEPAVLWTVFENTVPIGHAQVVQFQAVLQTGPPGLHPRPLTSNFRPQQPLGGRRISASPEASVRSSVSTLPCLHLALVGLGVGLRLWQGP

[5] = biological target: Carbonic anhydrase 7 (Homo sapiens, UniProt P43166)
Chain of Carbonic anhydrase 7 (P43166 whole entry): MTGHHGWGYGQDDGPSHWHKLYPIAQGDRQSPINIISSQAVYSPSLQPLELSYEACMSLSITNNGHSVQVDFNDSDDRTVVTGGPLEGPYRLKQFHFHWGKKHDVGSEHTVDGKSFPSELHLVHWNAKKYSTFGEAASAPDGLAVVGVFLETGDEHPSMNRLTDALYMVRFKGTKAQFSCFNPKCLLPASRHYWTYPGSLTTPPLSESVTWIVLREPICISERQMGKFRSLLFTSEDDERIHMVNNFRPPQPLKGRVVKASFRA

[6] = biological target: Carbonic anhydrase 12 (Homo sapiens, UniProt O43570)
Chain of Carbonic anhydrase 12 (O43570 whole entry): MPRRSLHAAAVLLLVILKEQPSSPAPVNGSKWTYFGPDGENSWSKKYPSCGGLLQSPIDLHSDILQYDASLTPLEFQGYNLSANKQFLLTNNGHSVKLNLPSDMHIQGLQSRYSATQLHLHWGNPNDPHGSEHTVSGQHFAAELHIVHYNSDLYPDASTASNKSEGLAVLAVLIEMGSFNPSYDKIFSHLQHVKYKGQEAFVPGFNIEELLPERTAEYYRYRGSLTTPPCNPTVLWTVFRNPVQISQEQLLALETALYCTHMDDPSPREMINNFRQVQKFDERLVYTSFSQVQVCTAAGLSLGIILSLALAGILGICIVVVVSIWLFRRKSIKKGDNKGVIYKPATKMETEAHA

[7] = biological target: Carbonic anhydrase 13 (Homo sapiens, UniProt Q8N1Q1); assay: Inhibition of human recombinant carbonic anhydrase 13 after 15 mins by stopped-flow CO2 hydration assay
Chain of Carbonic anhydrase 13 (Q8N1Q1 whole entry): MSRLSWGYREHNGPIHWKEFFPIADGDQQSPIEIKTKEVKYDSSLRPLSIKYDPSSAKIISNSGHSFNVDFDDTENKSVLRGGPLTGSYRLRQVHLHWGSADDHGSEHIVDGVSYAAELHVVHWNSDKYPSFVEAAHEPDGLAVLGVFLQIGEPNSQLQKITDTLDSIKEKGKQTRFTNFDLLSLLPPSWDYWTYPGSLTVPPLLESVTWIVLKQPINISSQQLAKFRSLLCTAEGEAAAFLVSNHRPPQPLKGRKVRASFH

[8] = biological target: Carbonic anhydrase 5B, mitochondrial (Homo sapiens, UniProt Q9Y2D0)
Chain of Carbonic anhydrase 5B, mitochondrial (Q9Y2D0 whole entry): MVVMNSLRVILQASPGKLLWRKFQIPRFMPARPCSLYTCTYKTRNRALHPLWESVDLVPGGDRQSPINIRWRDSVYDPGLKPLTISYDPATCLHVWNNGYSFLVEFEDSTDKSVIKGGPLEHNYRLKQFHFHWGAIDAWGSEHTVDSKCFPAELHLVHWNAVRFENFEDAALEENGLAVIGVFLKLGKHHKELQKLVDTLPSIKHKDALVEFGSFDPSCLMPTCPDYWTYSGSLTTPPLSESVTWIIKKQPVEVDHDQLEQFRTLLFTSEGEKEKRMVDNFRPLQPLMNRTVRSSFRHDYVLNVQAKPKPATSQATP

[9] = biological target: Carbonic anhydrase 14 (Homo sapiens, UniProt Q9ULX7); assay: Inhibition of human recombinant carbonic anhydrase 14 after 15 mins by stopped-flow CO2 hydration assay
Chain of Carbonic anhydrase 14 (Q9ULX7 whole entry): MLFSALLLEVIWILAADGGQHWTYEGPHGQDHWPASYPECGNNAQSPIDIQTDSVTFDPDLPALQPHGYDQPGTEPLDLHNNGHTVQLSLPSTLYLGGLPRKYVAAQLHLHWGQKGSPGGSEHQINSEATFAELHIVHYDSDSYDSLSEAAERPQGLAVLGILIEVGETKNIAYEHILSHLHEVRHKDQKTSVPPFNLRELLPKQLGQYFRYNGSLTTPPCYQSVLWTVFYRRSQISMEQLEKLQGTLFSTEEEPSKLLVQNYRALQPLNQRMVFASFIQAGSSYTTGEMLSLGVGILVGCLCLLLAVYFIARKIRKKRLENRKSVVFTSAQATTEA

[10] = biological target: Carbonic anhydrase 5A, mitochondrial (Homo sapiens, UniProt P35218); assay: Inhibition of human recombinant carbonic anhydrase 5a after 15 mins by stopped-flow CO2 hydration assay
Chain of Carbonic anhydrase 5A, mitochondrial (P35218 whole entry): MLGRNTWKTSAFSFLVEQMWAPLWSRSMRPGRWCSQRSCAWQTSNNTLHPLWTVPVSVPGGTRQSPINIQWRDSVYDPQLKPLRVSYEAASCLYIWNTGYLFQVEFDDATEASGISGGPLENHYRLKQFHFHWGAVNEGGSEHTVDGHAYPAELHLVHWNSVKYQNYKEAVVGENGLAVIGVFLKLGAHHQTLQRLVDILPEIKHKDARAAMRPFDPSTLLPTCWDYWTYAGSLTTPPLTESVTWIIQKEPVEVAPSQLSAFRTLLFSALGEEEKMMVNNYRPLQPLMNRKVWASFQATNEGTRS

Chain of Carbonic anhydrase 3 (P07451 whole entry): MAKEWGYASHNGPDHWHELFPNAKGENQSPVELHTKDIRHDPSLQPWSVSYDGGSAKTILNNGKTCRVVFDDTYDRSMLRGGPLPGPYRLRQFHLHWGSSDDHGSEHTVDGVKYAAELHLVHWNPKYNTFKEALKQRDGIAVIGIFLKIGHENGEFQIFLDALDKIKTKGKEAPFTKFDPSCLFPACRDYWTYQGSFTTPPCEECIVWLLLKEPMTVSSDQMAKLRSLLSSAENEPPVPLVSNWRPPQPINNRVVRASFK
Chain of Carbonic anhydrase 1 (P00915 whole entry): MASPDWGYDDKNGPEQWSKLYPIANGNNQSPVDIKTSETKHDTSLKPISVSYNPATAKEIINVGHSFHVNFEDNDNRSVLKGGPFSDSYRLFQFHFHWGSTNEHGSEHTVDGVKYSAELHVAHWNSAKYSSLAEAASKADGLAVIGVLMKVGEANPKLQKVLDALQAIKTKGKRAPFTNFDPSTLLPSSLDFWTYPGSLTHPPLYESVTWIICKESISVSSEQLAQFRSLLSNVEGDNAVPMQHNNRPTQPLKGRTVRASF

Structure (SMILES) | Ki [1] | Ki [2] | Ki [3] | Ki [4] | Ki [5] | Ki [6] | Ki [7] | Ki [8] | Ki [9] | Ki [10]
NS(=O)(=O)c1nnc(NC(=O)C23CC4CC(CC(C4)C2)C3)s1 | 6.4 nM | 300000 nM | 883 nM | 652 nM | 35 nM | 2.8 nM |  |  |  | 
NS(=O)(=O)c1nnc(NC(=O)CC23CC4CC(CC(C4)C2)C3)s1 | 49.5 nM | 410000 nM | 362 nM | 719 nM | 48 nM | 4.7 nM |  |  |  | 
Nc1nnc(S(N)(=O)=O)s1 |  | 150000 nM |  |  |  | 34 nM | 79 nM |  |  | 

Further lines, results first:

Ki [1] | Ki [2] | Ki [3] | Ki [4] | Ki [5] | Ki [6] | Ki [7] | Ki [8] | Ki [9] | Ki [10] | Structure (SMILES)
 | 300000 nM |  | 34 nM |  |  |  |  |  |  | Cc1cc(C)[n+](CCc2ccc(S(N)(=O)=O)cc2)c(C)c1
 |  |  | 30 nM | 2.9 nM | 13 nM |  |  |  |  | Nc1c(F)cc(S(=O)(=O)Nc2nnc(S(N)(=O)=O)s2)cc1Cl
 | 70000 nM |  |  |  |  | 98 nM | 93 nM | 689 nM | 794 nM | Cc1ccc(-c2cc(C(F)(F)F)nn2-c2ccc(S(N)(=O)=O)cc2)cc1 [CELECOXIB]
